Source: US7893074B2, “2, 4-pyrimidinediamines useful in the treatment of neoplastic diseases, inflammatory and immune system disorders” (Novartis AG, priority 2003, dated 2011)
Values joined by “and” are separate entries in the source; they are usually repeats but may differ in a detail not shown here. Equal entries are not always repeated. Where two headings read alike, the source gives them in different places.

Assays:
FAK = FAK (Mus musculus, UniProt P34152); assay: Phos IC50 (phosphorylation); format: cell-based
FAK, sequence (P34152 2-1052): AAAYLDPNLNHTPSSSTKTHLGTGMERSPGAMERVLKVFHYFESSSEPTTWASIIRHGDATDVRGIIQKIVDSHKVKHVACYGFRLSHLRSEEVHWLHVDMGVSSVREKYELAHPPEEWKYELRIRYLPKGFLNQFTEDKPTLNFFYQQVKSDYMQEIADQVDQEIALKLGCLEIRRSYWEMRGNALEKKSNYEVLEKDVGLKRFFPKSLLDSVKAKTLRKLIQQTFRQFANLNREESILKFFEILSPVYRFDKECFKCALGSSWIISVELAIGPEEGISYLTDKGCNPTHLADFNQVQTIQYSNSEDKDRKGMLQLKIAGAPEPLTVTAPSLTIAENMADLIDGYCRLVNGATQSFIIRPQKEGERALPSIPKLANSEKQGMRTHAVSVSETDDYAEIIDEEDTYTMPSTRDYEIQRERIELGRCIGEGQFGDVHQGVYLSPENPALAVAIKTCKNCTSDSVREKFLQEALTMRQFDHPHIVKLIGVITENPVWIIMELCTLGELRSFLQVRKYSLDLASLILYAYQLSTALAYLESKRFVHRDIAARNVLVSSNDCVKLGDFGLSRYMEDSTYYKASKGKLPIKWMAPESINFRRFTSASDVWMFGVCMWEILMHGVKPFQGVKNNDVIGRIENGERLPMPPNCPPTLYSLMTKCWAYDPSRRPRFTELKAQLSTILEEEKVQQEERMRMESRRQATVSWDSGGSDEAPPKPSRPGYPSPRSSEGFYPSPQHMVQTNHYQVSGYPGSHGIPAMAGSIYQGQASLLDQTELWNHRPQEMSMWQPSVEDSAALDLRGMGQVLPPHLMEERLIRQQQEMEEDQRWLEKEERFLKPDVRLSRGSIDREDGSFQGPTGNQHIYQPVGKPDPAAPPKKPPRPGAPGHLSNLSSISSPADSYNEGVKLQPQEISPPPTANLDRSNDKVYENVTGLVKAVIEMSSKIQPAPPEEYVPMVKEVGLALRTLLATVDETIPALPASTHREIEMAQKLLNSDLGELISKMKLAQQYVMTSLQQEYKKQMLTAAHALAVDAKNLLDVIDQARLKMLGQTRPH

[1] = test system: Mouse mammary carcinoma 4T1 cells; assay: Anchorage-independent tumor cell growth assay; format: cell-based
Experimental: Cells are cultured for 2 h and inhibitors are added at various concentrations in a final concentration of 0.1% DMSO. After 48 h, cell growth is assayed with the cell counting kit-8 (Wako Pure Chemical), which uses a water soluble tetrazolium salt WST8. Twenty μL of the reagent is added into each well and cells are further cultured for 2 h. The optical density is measured at 450 nm.

[2] = molecular target: Focal Adhesion Kinase (FAK) (Homo sapiens, UniProt Q05397); assay: FAK assay system (Focal Adhesion Kinase inhibition); format: biochemical
Focal Adhesion Kinase (FAK), sequence (Q05397 384-706): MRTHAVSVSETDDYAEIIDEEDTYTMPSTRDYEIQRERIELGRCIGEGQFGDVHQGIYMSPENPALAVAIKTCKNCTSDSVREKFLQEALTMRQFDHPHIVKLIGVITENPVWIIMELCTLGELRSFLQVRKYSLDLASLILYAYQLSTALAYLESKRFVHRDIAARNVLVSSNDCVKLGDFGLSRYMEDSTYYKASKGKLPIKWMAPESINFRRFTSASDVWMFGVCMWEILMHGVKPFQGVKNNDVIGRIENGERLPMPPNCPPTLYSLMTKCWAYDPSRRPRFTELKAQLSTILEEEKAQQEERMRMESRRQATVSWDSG

| SMILES | IC50 ([1]; Mus musculus, 4T1) [nM] | IC50 ([2]; read-out: FAK IC50) | further results |
| --- | --- | --- | --- |
| CCCCc1ccccc1Nc1ncc(Br)c(Nc2ccccc2S(=O)(=O)NC)n1 [Example 3-10] | > 10000 | 52 nM | IC50 (FAK): 950 nM |
| CNS(=O)(=O)c1ccccc1Nc1nc(Nc2cc(OCC3CCN(C)CC3)ccc2OC)ncc1Cl [Example 20-26] | 270 | 5.3 nM | IC50 (FAK): 760 nM |
| CNS(=O)(=O)c1ccccc1Nc1nc(Nc2ccc(OC3CCN(C)C3)cc2OC)ncc1Br (stereo not drawn) [Example 3-82] |  |  | IC50 [1]: 70 nM |
| CNS(=O)(=O)c1ccccc1Nc1nc(Nc2cc(N3CCOCC3)ccc2OC)ncc1Cl [Example 20-11] | 400 | 26 nM | IC50 (FAK): 2000 nM |
| CNC(=O)c1cc(N2CCCC2)ccc1Nc1nc(Nc2ccc(N3CCOCC3)cc2OC)ncc1Cl [Example 15-3] |  |  | IC50 [1]: 1670 nM |
| COc1cc(N2CCC(N3CCN(C)CC3)CC2)ccc1Nc1ncc(Cl)c(Nc2ccccc2S(=O)(=O)C(C)C)n1 [Example 28-5] | 120 |  | IC50 (FAK): 100 nM |
| CNC(=O)c1ccccc1Nc1nc(Nc2cc(N3CCC(NC)C3)ccc2OC)ncc1Cl (stereo not drawn) [Example 7-23] | 250 | 1.4 nM |  |
| CNC1CCN(c2ccc(Nc3ncc(Cl)c(Nc4ccccc4S(=O)(=O)C(C)C)n3)c(OC)c2)CC1 [Example 28-20] |  | 4.4 nM | IC50 (FAK): […] |
| CCOc1ccc(OC)cc1Nc1ncc(Br)c(Nc2ccccc2S(=O)(=O)NC)n1 [Example 3-61] | > 10000 | 12 nM |  |
| COc1cc(OCC(C)(C)CN(C)C)ccc1Nc1ncc(Cl)c(Nc2ccccc2S(=O)(=O)NC(C)C)n1 [Example 19-24] | 120 |  | IC50 ([2]; FAK IC50): 1.8 nM |
| COc1cc(N2CCCC(C(N)=O)C2)ccc1Nc1ncc(Cl)c(Nc2ccccc2S(=O)(=O)NC(C)C)n1 (stereo not drawn) [Example 19-19] | 400 | 5.7 nM |  |
| COc1cc(OCCN2CCOCC2)ccc1Nc1ncc(Cl)c(Nc2ccccc2S(=O)(=O)NC(C)C)n1 [Example 19-29] |  | 1.9 nM |  |
| COc1cc(N2CCC(N3CCN(C)CC3)CC2)ccc1Nc1ncc(Cl)c(Nc2cccc3c2C(=O)N(C)C3)n1 [Example 12-4] | 140 | 1.1 nM |  |
| CNC(=O)c1ccccc1Nc1nc(Nc2ccc(N3CCNCC3)cc2OC)ncc1Cl [Example 7-26] | 150 | 4.1 nM |  |
| CCN1Cc2cccc(Nc3nc(Nc4ccc(N5CCN(C)CC5)cc4OC)ncc3Cl)c2C1=O [Example 13-1] | 810 | 65 nM |  |
| CNS(=O)(=O)c1ccccc1Nc1nc(Nc2cc(N3CCC(O)CC3)ccc2OC)ncc1Cl [Example 20-19] | 210 | 28 nM |  |
| CNS(=O)(=O)c1ccccc1Nc1nc(Nc2cc(C(=O)N3CCN(C)CC3)ccc2OC)ncc1Br [Example 3-49] | 390 | 39 nM |  |
| COc1cc(N2CCOCC2)ccc1Nc1ncc(Cl)c(Nc2ccccc2S(=O)(=O)NC2CCCC2)n1 [Example 25-1] | 1000 |  | IC50 ([2]; FAK IC50): 8.5 nM |
| CNS(=O)(=O)c1ccccc1Nc1nc(Nc2cc(-c3ccc(OC)cc3)ccc2OC)ncc1Br [Example 3-56] | 150 |  | IC50 ([2]; FAK IC50): 28 nM |
| CNC1CCN(c2ccc(Nc3ncc(Cl)c(Nc4ccccc4S(=O)(=O)NC)n3)c(OC)c2)C1 (stereo not drawn) [Example 20-17] | 140 | 2 nM |  |
| CNS(=O)(=O)c1ccccc1Nc1nc(Nc2cc(N3CCC(N4CCCCC4)CC3)ccc2OC)ncc1Cl [Example 20-32] | 110 | 13 nM |  |
| CNS(=O)(=O)c1ccccc1Nc1nc(Nc2cccc(N(C)C)c2C)ncc1Br [Example 3-53] | 210 |  | IC50 ([2]; FAK IC50): 6 nM |
| CNC(=O)c1cc(F)c(F)cc1Nc1nc(Nc2ccc(N3CCOCC3)cc2OC)ncc1Cl [Example 14-3] | 1010 |  | IC50 ([2]; FAK IC50): 30 nM |
| CCCOc1cc(N2CCN(C)CC2)ccc1Nc1ncc(Cl)c(Nc2ccccc2S(=O)(=O)NC)n1 [Example 20-14] | 320 | 33 nM |  |
| CNS(=O)(=O)c1ccccc1Nc1nc(Nc2cc(OC)c(N3CCN(C)CC3)cc2OC)ncc1Cl [Example 20-13] | 40 | 6.3 nM |  |
| CCNC(=O)c1ccccc1Nc1nc(Nc2ccc(N3CCC(N4CCCCC4)CC3)cc2OC)ncc1Cl [Example 9-3] |  |  | IC50 [1]: 370 nM |
| CNS(=O)(=O)c1ccccc1Nc1nc(Nc2ccc(OC3CCN(C)C3)cc2OC)ncc1Cl (stereo not drawn) [Example 20-29] |  |  | IC50 [1]: 50 nM |

| SMILES | IC50 ([1]; Mus musculus, 4T1) [nM] | IC50 ([2]; read-out: FAK IC50) | further results |
| --- | --- | --- | --- |
| CNC(=O)c1ccccc1Nc1nc(Nc2cc(N3CCC(N4CCCCC4)CC3)ccc2OC)ncc1Cl [Example 7-24] | 90 | 5.1 nM |  |
| COc1cc(N2CCN(C)CC2)ccc1Nc1ncc(Cl)c(Nc2cccc3c2C(=O)N(C)C3)n1 [Example 12-2] | 50 | 1.6 nM |  |
| COc1cc(N2CCOCC2)ccc1Nc1ncc(Cl)c(Nc2cccc3c2C(=O)CC3)n1 [Example 14-4] | 540 | 18 nM |  |
| CNS(=O)(=O)c1ccccc1Nc1nc(Nc2cc(N3CCN(C)CC3)ccc2OC)ncc1Cl [Example 20-31] | 500 | 39 nM |  |
| CCCS(=O)(=O)c1ccccc1Nc1nc(Nc2ccc(N3CCCC(C(N)=O)C3)cc2OC)ncc1Cl (stereo not drawn) [Example 26-14] | 190 | 5 nM |  |
| CNS(=O)(=O)c1ccccc1Nc1nc(Nc2cc(N3CCC(N4CCN(C)CC4)CC3)ccc2OC)ncc1Cl [Example 20-18] | 810 | 15 nM |  |
| CNS(=O)(=O)c1ccccc1Nc1nc(Nc2cccc3c2CCC3)ncc1Br [Example 3-12] | 1000 |  | IC50 ([2]; FAK IC50): 5.4 nM; IC50 ([2]; FAK inhibition IC50, FAK assay system): 1 to 5 nM |
| COc1cc(OC2CCN(C)CC2)ccc1Nc1ncc(Cl)c(Nc2ccccc2S(=O)(=O)C(C)C)n1 [Example 28-19] |  |  | IC50 [1]: 140 nM |
| CNC(=O)c1cc(N2CCCC2)ccc1Nc1nc(Nc2ccc(N3CCN(C)CC3)cc2OC)ncc1Cl [Example 15-1] | 470 | 15 nM |  |
| COc1cc(N2CCN3CCOC[C@H]3C2)ccc1Nc1ncc(Cl)c(Nc2cccc3c2C(=O)N(C)C3)n1 [Example 12-6] |  | 2.6 nM |  |
| CNC(=O)c1ccccc1Nc1nc(Nc2ccc(N3CCC[C@H](C(N)=O)C3)cc2OC)ncc1Cl [Example 7-18] |  |  | IC50 ([2]; FAK IC50): 6.2 nM |
| CNC(=O)c1ccccc1Nc1nc(Nc2cc(N3CCC(N4CCN(C)CC4)CC3)ccc2OC)ncc1Cl [Example 7-19] | 330 | 13 nM |  |
| CCN1CCN(c2ccc(Nc3ncc(Cl)c(Nc4ccccc4S(=O)(=O)C(C)C)n3)c(OC)c2)CC1 [Example 28-12] | 430 | 3.2 nM |  |
| COc1cc(N2CCC(O)CC2)ccc1Nc1ncc(Cl)c(Nc2cccc3c2C(=O)N(C)C3)n1 [Example 12-3] | 250 | 2.3 nM |  |
| CNS(=O)(=O)c1ccccc1Nc1nc(Nc2ccc(N3CCC(N4CCN(C)CC4)CC3)cc2OC)ncc1Cl [Example 20-16] | 60 | 7.5 nM |  |
| CNC(=O)c1ccccc1Nc1nc(Nc2cc(N3CCN(C)CC3)ccc2OC)ncc1Cl [Example 7-22] | 480 | 25 nM |  |
| CNC(=O)c1ccccc1Nc1nc(Nc2ccc(N3CCC(N4CCCC4)CC3)cc2OC)ncc1Cl [Example 7-25] | 730 | 13 nM and 2 nM | IC50 [1]: 570 nM |
| CNC1CCN(c2ccc(OC)c(Nc3ncc(Cl)c(Nc4ccccc4S(=O)(=O)NC)n3)c2)C1 (stereo not drawn) [Example 20-33] | 380 | 2.5 nM |  |
| CNS(=O)(=O)c1ccccc1Nc1nc(Nc2ccc(OC)cc2OC)ncc1Br [Example 2, 2-[5-Bromo-2-(2,4-dimethoxy-phenylamino)-pyrimidin-4-ylamino]-N-methyl-benzenesulfonamide] |  | 13 nM |  |
| CCCS(=O)(=O)c1ccccc1Nc1nc(Nc2ccc(N3CCN(CC(=O)NC(C)C)CC3)cc2OC)ncc1Cl [Example 26-21] |  | 1.1 nM | IC50 (FAK): 100 nM |
| COc1cc([N+](=O)[O-])ccc1Nc1ncc(Cl)c(Nc2ccccc2S(=O)(=O)C(C)C)n1 [Example 28-7] | > 10000 |  | IC50 ([2]; FAK IC50): 47 nM |
| CNS(=O)(=O)c1ccccc1Nc1nc(Nc2ccc(F)cc2F)ncc1Br [Example 3-36] | 2800 |  | IC50 ([2]; FAK IC50): 43 nM |
| CCC(CC)NS(=O)(=O)c1ccccc1Nc1nc(Nc2ccc(OC3CCN(C)C3)cc2OC)ncc1Cl (stereo not drawn) [Example 23-7] |  |  | IC50 [1]: 840 nM |
| CNS(=O)(=O)c1ccccc1Nc1nc(Nc2cc(OC)c(N3CCOCC3)cc2OC)ncc1Cl [Example 20-12] |  | 9.5 nM |  |
| CNC(=O)c1ccccc1Nc1nc(Nc2ccc(N3CCC[C@@H](C(N)=O)C3)cc2OC)ncc1Cl [Example 7-17] |  |  | IC50 ([2]; FAK IC50): 4.3 nM |
| COc1cc(N2CCOCC2)ccc1Nc1ncc(Cl)c(Nc2ccccc2C(=O)N2CCCC2)n1 [Example 14-6] | 1110 | 63 nM |  |
